Test systems include SW-620; A549; OVCAR-8; SF-539; MCF7; IGROV-1; CAKI-1; HCT-15; SK-MEL-28; ACHN; HT-29; HOP-92; KM12; RPMI-8226; UO-31; OVCAR-4; EKVX; MOLT-4; SN12C; NCI-H460.
Holding throughout (assay): NCI tumour cell line growth inhibition, 48 h

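Values below derive from 48-hour exposures of cells grown in 96-well plates, with endpoints linearly interpolated between the two concentrations bracketing the appropriate inhibition level. GI50 marks 50% less growth.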 Calls of active or inactive are those of the source. Rule as the data show it: active = GI50 up to about 1.1 µM and inactive = higher. Some results are limits rather than exact numbers.

Take `CC(=O)Nc1ccc(/C=C/C(=O)N2CC(CCl)c3c2cc(N)c2ccccc32)cc1` (centres undefined): the GI50 in the assay with SW-620, with A549, in the assay with OVCAR-8, with SF-539, in the assay on MCF7 and in the assay on IGROV-1 was < 0.005 µM (active) throughout. The GI50 in the assay with CAKI-1 is < 0.005 µM (active); in the assay with HCT-15, less than 0.005 µM; in the assay with SK-MEL-28 it was 0.00641 µM (active); with ACHN it was < 0.005 µM (active); with HT-29, < 0.005 µM (active); in the assay with HOP-92, < 0.005 µM (active). Further, the GI50 was 0.0064 µM (active) with KM12; 0.0149 µM (active) in the assay on RPMI-8226; < 0.005 µM (active) in the assay on UO-31; 0.0226 µM (active) in the assay on OVCAR-4; 0.01 µM (active) in the assay with EKVX; < 0.005 µM (active) with MOLT-4. The GI50 in the assay on SN12C and in the assay with NCI-H460 was < 0.005 µM (active) each time.
For the molecule `C/C(=C\c1ccc(Cl)cc1)C(C)(C)C(=O)O`, the GI50 in the assay on SW-620, with A549, in the assay on OVCAR-8, with SF-539, in the assay with MCF7 and in the assay with IGROV-1 was > 100 µM (inactive) each time. In addition, the GI50 was > 100 µM (inactive) in the assay on CAKI-1; greater than 100 µM in the assay with HCT-15; > 100 µM (inactive) in the assay with SK-MEL-28; > 100 µM (inactive) in the assay with ACHN; > 100 µM (inactive) in the assay on HT-29; > 100 µM (inactive) with HOP-92. Further, the GI50 in the assay with KM12, with RPMI-8226, in the assay on UO-31, in the assay on OVCAR-4, in the assay on EKVX and in the assay on MOLT-4 was > 100 µM (inactive) throughout. Moreover, the GI50 in the assay on SN12C and in the assay on NCI-H460 was > 100 µM (inactive) in each case.
In the case of `N=C(N)N/N=C\c1c(-c2cccc([N+](=O)[O-])c2)nc2sccn12`, the GI50 with SW-620 was 2.08 µM (inactive); in the assay on A549, 18.1 µM (inactive); in the assay on OVCAR-8, 1.81 µM (inactive); in the assay on SF-539, 17.9 µM (inactive); in the assay with MCF7, 2.03 µM (inactive); in the assay with IGROV-1 it was 15 µM (inactive). Further, the GI50 in the assay with CAKI-1 was 17.4 µM (inactive); with HCT-15 it was 9.68 µM; in the assay on SK-MEL-28, 2.04 µM (inactive); with ACHN, 2.86 µM (inactive); with HT-29 it was 1.96 µM (inactive); in the assay with HOP-92, 5.93 µM (inactive). Also, the GI50 was 1.02 µM (active) with KM12; 17.4 µM (inactive) with RPMI-8226; 18.5 µM (inactive) in the assay with UO-31; 1.76 µM (inactive) in the assay with OVCAR-4; 15.9 µM (inactive) in the assay with EKVX; 1.92 µM (inactive) in the assay on MOLT-4. In addition, the results for the GI50 in the assay with SN12C and with NCI-H460 were 2.21 µM (inactive) and 24.4 µM (inactive), respectively.
With `N#C/C(=C\c1ccc(Br)cc1)c1nc(-c2cc3ccccc3oc2=O)cs1`, the GI50 is 19.8 µM (inactive) with SW-620; 35.1 µM (inactive) with A549; 15.9 µM (inactive) in the assay on OVCAR-8; 14 µM (inactive) with SF-539; 18.4 µM (inactive) with MCF7; 12.3 µM (inactive) in the assay with IGROV-1. In addition, the GI50 in the assay on CAKI-1 is 48.4 µM (inactive); in the assay on HCT-15, 32.1 µM; in the assay on SK-MEL-28, 28.2 µM (inactive); with ACHN it was 10.8 µM (inactive); in the assay on HT-29 it was 23.3 µM (inactive); in the assay with HOP-92 it was 11 µM (inactive). The GI50 in the assay with KM12 was 19.1 µM (inactive); in the assay on RPMI-8226 it was 44.1 µM (inactive); in the assay on UO-31, 20.2 µM (inactive); in the assay with OVCAR-4, 17.2 µM (inactive); with EKVX, 13.3 µM (inactive); in the assay with MOLT-4, > 50 µM (inactive). Further, the GI50 with SN12C was 20 µM (inactive); in the assay on NCI-H460, 16.7 µM (inactive).
For `CC(NNC(=O)c1cc[n+]([BH2-]C#N)cc1)c1ccc(F)cc1` (centres undefined), the GI50 with SW-620, in the assay on A549, in the assay on OVCAR-8, in the assay on SF-539, in the assay on MCF7 and with IGROV-1 was > 100 µM (inactive) in each case. The GI50 with CAKI-1 is > 100 µM (inactive); with HCT-15 it was greater than 100 µM; with SK-MEL-28, > 100 µM (inactive); with ACHN, > 100 µM (inactive); with HT-29, > 100 µM (inactive); in the assay on HOP-92 it was > 100 µM (inactive). Besides, the GI50 in the assay on KM12, in the assay with RPMI-8226, in the assay with UO-31, in the assay on OVCAR-4, in the assay on EKVX and in the assay with MOLT-4 was > 100 µM (inactive) throughout. Also, the GI50 with SN12C and in the assay on NCI-H460 was > 100 µM (inactive) throughout.
For the molecule `COc1ccc([I+]c2ccc(OC)cc2)cc1`, the GI50 is > 91.8 µM (inactive) in the assay on SW-620; 1.87 µM (inactive) in the assay with A549; 22.1 µM (inactive) in the assay with OVCAR-8; > 78.3 µM (inactive) with SF-539; 46.7 µM (inactive) with MCF7; > 66.8 µM (inactive) with IGROV-1. Besides, the GI50 was > 100 µM (inactive) in the assay with CAKI-1; greater than 22.2 µM in the assay with HCT-15; 73.6 µM (inactive) in the assay on SK-MEL-28; > 100 µM (inactive) with ACHN; 39 µM (inactive) with HT-29; > 100 µM (inactive) in the assay with HOP-92. Moreover, the GI50 with KM12 is 28.9 µM (inactive); in the assay with RPMI-8226 it was 44.1 µM (inactive); with UO-31, > 100 µM (inactive); in the assay with OVCAR-4 it was > 75.2 µM (inactive); in the assay on EKVX it was > 75 µM (inactive); with MOLT-4 it was > 100 µM (inactive). Moreover, the GI50 in the assay on SN12C is 40.8 µM (inactive); in the assay on NCI-H460, 4.47 µM (inactive).
As to `CC1(C)N=C(N)N=C(N)N1c1ccc(Cl)cc1`, the GI50 with SW-620 is 1.48 µM (inactive); with A549, 0.665 µM (active); with OVCAR-8, 0.817 µM (active); with SF-539, 4.42 µM (inactive); in the assay on MCF7, 15.6 µM (inactive); with IGROV-1, 2.23 µM (inactive). Also, the GI50 with CAKI-1 is 19.1 µM (inactive); with HCT-15, 7.11 µM; in the assay on SK-MEL-28, 37.1 µM (inactive); in the assay with ACHN it was 5.16 µM (inactive); in the assay on HT-29 it was 2.92 µM (inactive); in the assay with HOP-92, 24.1 µM (inactive). The GI50 is 8.73 µM (inactive) in the assay with KM12; 6.81 µM (inactive) in the assay on RPMI-8226; 47.2 µM (inactive) with UO-31; > 100 µM (inactive) in the assay with OVCAR-4; 26.7 µM (inactive) in the assay with EKVX; 1.71 µM (inactive) in the assay on MOLT-4. For the same molecule, the figures for the GI50 with SN12C and in the assay on NCI-H460 were 6.71 µM (inactive) and 3.38 µM (inactive), respectively.
Consider `O=C(O)CCCCCCCCC(=O)O` [SEBACIC ACID], for which the GI50 in the assay on SW-620 is > 500 µM (inactive); with A549, 108 µM (inactive); in the assay with OVCAR-8 it was 108 µM (inactive); in the assay with SF-539, > 79.3 µM (inactive); in the assay on MCF7, > 377 µM (inactive); with IGROV-1, > 500 µM (inactive). In addition, the GI50 with CAKI-1 is > 500 µM (inactive); with HCT-15, 99.1 µM; in the assay with SK-MEL-28, > 500 µM (inactive); in the assay with HT-29, > 23.2 µM (inactive); in the assay on HOP-92, 5 µM (inactive); in the assay on KM12 it was > 500 µM (inactive). The GI50 in the assay with RPMI-8226 is > 500 µM (inactive); in the assay on UO-31, > 79.3 µM (inactive); with OVCAR-4, > 50 µM (inactive); in the assay on EKVX, 50 µM (inactive); in the assay on MOLT-4 it was > 500 µM (inactive); in the assay with SN12C it was > 321 µM (inactive). Further, the GI50 in the assay on NCI-H460 is 108 µM (inactive).

Values taken from ChEMBL document CHEMBL1201862, “PubChem BioAssay data set” (2004).
